Reference: patent EP2550959A1 (priority 2011, dated 2013)
pIC50: −log10 of the molar value. Like-named read-outs stand apart in the source and are kept apart here.

What was measured:
[1] = target: T1, 5-HT2B Rezeptoren von Schweinelungenarterien (Sus scrofa, UniProt F1SMV8); test: Functional 5-HT2B receptor assay: 5-HT-induced relaxation of PGF2α-precontracted pig pulmonary arteries; type: biochemical, Schwein; details: conditions as in Beispiel 1
From the text: (§1) Dabei bedeutet der pA2 -Wert den negativ dekadischen Logarithmus der Konzentration eines Antagonisten, die es erforderlich macht, die Agonisten-Konzentration zu verdoppeln, um den Ausgangseffekt des Agonisten ohne Antagonisten wiederherzustellen.
Die vaskuläre Reaktion in Präparationen der Pulmonalarterien des Schweins, die mittels PGF2α vorkontrahiert waren, wurden als Assay für die spezifische Interaktion mit 5-HT2B-Rezeptoren verwendet (siehe Fig. 1A).

[2] = target: 5-HT2A Rezeptoren von Schweineherzkranzarterien (Sus scrofa, UniProt P50129); test: Functional 5-HT2A receptor assay: 5-HT-induced contraction of pig coronary arteries; type: biochemical, Schwein
Sequence of 5-HT2A Rezeptoren von Schweineherzkranzarterien (P50129 whole entry): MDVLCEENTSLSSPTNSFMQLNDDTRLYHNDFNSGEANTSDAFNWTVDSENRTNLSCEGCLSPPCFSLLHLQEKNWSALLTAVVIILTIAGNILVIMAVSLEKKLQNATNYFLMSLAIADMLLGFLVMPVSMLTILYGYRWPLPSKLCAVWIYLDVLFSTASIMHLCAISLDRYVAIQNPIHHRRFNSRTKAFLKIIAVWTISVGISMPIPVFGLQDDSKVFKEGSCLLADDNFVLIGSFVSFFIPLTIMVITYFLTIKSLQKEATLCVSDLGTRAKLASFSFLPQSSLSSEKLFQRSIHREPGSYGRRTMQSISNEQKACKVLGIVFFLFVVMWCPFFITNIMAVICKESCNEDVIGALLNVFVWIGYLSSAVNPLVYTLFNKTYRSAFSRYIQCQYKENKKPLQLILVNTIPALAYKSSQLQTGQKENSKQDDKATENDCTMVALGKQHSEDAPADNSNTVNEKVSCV
From the text: as §1

[3] = Antioxidative effect / uptake of oxygen radicals; type: physicochemical; details: per single molecule
From the text: Die massenspektroskopisch in der Mehrheit nachweisbaren Reaktionsprodukte enthalten 2 Sauerstoffatome; es lassen sich aber auch Verbindungen mit 3, 4 und 5 Sauerstoff-Atomen nachweisen.
Ein typisches Charakteristikum von Massenspektra ist, dass Gipfel von [M+H]++18, d. h. Zusatz von Wasser, oder [M+H]++16, d.h. Zusatz eines Sauerstoffatoms, gefunden werden, wie auch Kombinationen von Wasser und Sauerstoffatomen. Wegen der niedrigen in den Entnahmeproben enthaltenen Substanzmengen und der Kurzlebigkeit der Reaktionsprodukte war deren Isolierung zur Strukturaufklärung nicht möglich. Das Lisuridmolekül weist mehrere Positionen auf, an denen Wasser und/oder ein Sauerstoffatom gebunden werden können (Fig. 4).

[4] = Stability of lisuride dissolved in water (HPLC); details: room temperature, HPLC (Fig. 3A)
[5] = target: T1, 5-HT2B Rezeptoren von Schweinelungenarterien; details: footnote d: from Glusa and Pertz, Brit. J. Pharmacol. 130, 692-698, 2000; cited from earlier work
[6] = tested on: monocrotalin-induzierten Lungenhochdruck; test: Monocrotaline-induced pulmonary hypertension in the rat; type: in vivo, Sprague-Dawley Ratten; details: days 15-28, mean ± SEM (N=6)
From the text: Monocrotalin (MCT) ist ein Toxin aus Pflanzen der Spezies Crotalaria, welches nach einer einzigen Injektion in Ratten die Endothelzellen der pulmonalen Arterien schädigt mit folgender Hypertrophie der glatten Gefässmuskulatur und persistierendem schwerem pulmonalem Hochdruck. Die MCTinduzierte pulmonale Hypertension der Ratte ist ein gut etabliertes und validiertes Modell der humanen pulmonalen Hypertension und alle heute zugelassenen Therapeutika haben eine Wirkung in diesem Modell gezeigt, zumindest wenn sie vor dem toxisch bedingten Gewebeumbau angewendet wurden.
MCT (60mg/kg) wurde bei männlichen Sprague-Dawley Ratten als Einzelinjektion subkutan verabreicht und ein gleiches Volumen isotonischer Kochsalzlösung bei den Kontrolltieren injiziert. […] Dabei wurde die genannte Dosis der jeweiligen Testsubstanz morgens und abends in einem Volumen von je 2.0 ml an Gruppen von jeweils 6 Tieren gegeben, die an Tag 1 des Experiments mit MCT behandelt worden waren. Die gleiche Menge Wasser wurde den Kontrolltieren zugeführt.
Am Tag 28 des Experiments, zwei Stunden nach letztmaliger Substanzgabe, wurden die Tiere narkotisiert unter Verwendung von Pentobarbital. Eine Tracheotomie wurde durchgeführt und die Tiere unter Isofluran-Anästhesie beatmet. Der mittlere arterielle Systemdruck und der systolische Druck im rechten Herzventrikel wurden gemessen. Nach den Druckmessungen wurden die Tiere mit physiologischer Kochsalzlösung perfundiert und die rechte Lunge wurde zur Bestimmung des Kollagengehalts entfernt.
Die sc-Injektion von MCT, wie oben beschrieben, führt zu einer schweren Schädigung des pulmonalen Gefässendothels sowie überschießender Produktion von Bindegewebe und Entwicklung einer pulmonalen Hypertonie. Anhäufung von Kollagen, gemessen als Hydroxyprolin-Gehalt des Lungengewebes, und Anstieg des rechtsventrikulären systolischen Drucks reflektieren die beschriebenen strukturellen und funktionalen Veränderungen. Die möglichen therapeutischen und präventiven Effekte von Lisurid bzw. Tergurid wurden in dem vorgestellten Modell der pulmonalen Hypertension gemessen. […]

[7] = tested on: Menschliche glatte Muskelzellen mesenterialen Ursprungs; test: 5-HT-stimulated proliferation of human smooth muscle cells (3H-thymidine uptake); type: cell-based; details: 10 µmol/l test substance, growth stimulated with 10-8 mol/l 5-HT; Fig. 2
From the text: Menschliche glatte Muskelzellen mesenterialen Ursprungs (Promo Cell) wurden entsprechend den Empfehlungen des Herstellers bis zur Bildung geschlossener Monolayers in 6 Platten mit PromoCell-Kulturmedium vermehrt und dann im gleichen Medium auf 24-Vertiefungsträgern für eine Zellzahl von 5x104 Zellen/Ansatz ausgesät. […] Zur Bestimmung des Zellwachstums wurde dann 3H-Thymidin (Amersham) zu den Zellkulturen hinzugegeben und diese für 24 Stunden inkubiert. Nach der Adhäsion der Zellen wurde das Kulturmedium durch ein Standardmedium mit 0.2% fetalem Kalbsserum zum Wachstumsstopp ersetzt und erneut 48 Stunden lang inkubiert.
Um antiproliferative Wirkungen der beschriebenen Substanzen zu testen, wurden die Zellkulturen dann zunächst mit einer Konzentration von 10 µmol/l der Prüfsubstanzen präinkubiert. […] Zur Messung des Wachstums der Zellen wurde dann 3H-Thymidin (Amersham) den Kulturen zugefügt und diese für 24 Stunden inkubiert. Danach erfolgten 2 Inkubationen in eisgekühlter Kochsalzlösung mit einem Phosphat-Puffer und danach 30 min Inkubation in eisgekühlter 10%iger Trichlor-Essigsäure bei 4°C. Die Zellen wurden dann in 0.1 molarer NaOH-Lösung inkubiert (0.5 ml/Inkubationsgefäss). Nach Neutralisierung mit Essigsäure wurde die 3H -Thymidin-Aufnahme mit Flüssig-Szintillation gemessen (als Dreifach-Bestimmung).

[8] = tested on: 5-HT-induzierte Effekte; details: 2007], cited from earlier work

T1 sequence (F1SMV8 1-481): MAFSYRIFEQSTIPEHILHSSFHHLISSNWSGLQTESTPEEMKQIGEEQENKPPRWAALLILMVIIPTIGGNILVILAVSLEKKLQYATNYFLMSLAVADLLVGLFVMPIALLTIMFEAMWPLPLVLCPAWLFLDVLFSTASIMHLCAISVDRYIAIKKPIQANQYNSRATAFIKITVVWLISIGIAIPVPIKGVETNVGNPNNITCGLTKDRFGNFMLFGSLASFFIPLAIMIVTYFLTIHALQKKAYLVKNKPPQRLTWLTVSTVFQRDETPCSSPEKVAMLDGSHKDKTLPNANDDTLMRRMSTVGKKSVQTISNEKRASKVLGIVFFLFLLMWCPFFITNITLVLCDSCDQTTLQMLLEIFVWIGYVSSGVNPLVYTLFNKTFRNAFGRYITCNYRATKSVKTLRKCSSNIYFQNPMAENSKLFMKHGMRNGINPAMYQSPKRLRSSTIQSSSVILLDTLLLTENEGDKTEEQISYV

## CCN(CC)C(=O)NC1C=C2c3cccc4[nH]cc(c34)CC2NC1 (stereo not drawn) [6-Norlisurid]
[1]
  5-HT2B pA2: 8.39 ± 0.12
[2]
  Kb: 1.45 nM

## CCN(CC)C(=O)NC1CNC2Cc3c[nH]c4cccc(c34)C2C1 (stereo not drawn) [6-Nortergurid]
[1]
  5-HT2B pA2: 7.11 ± 0.08
[2]
  Kb: 14.1 nM

## CCN(CC)C(=O)NC1CC2c3cccc4[nH]cc(c34)CC2N(C)C1 (stereo not drawn) [8β-Tergurid]
[1]
  5-HT2B pA2: 8.39 ± 0.09
[2]
  Kb: 5.13 nM

## CCN(CC)C(=O)N[C@H]1C=C2c3cccc4[nH]cc(c34)C[C@H]2N(C)C1 [Lisurid, 3-(9,10-didehydro-6-methylergoline-8alpha-yl)-1,1-diethylurea]
[3]
  freie Sauerstoffradikale, die ein Molekül aufnehmen kann: ≤ 6
[4]
  Abbau von gelöstem Lisurid in Wasser: schnell zu Produkten abgebaut

## CCNC(=O)NC1C=C2c3cccc4[nH]cc(c34)CC2N(C)C1 (stereo not drawn) [N"-Monodesethyllisurid]
[1]
  5-HT2B pA2: 8.08 ± 0.05
[2]
  Kb: 5.13 nM

## CCNC(=O)NC1CC2c3cccc4[nH]cc(c34)CC2N(C)C1 (stereo not drawn) [N"-Monodesethyltergurid]
[1]
  5-HT2B pA2: 7.30 ± 0.02
[2]
  Kb: 15.1 nM

## Cc1cc(NC(=O)Nc2ccc3c(ccn3C)c2)sn1 [SB204741]
[5]
  5-HT2B pA2: 6.59 ± 0.20^d

## CCN(CC)C(=O)N[C@H]1C[C@@H]2c3cccc4[nH]cc(c34)C[C@H]2N(C)C1 [Tergurid, trans-Dihydrolisurid]
[2]
  pIC50: 9.43
[6]; Monocrotaline (60 mg/kg s.c.) + 2.5 mg/kg bid by gavage
  RVPsys: 39 ± 3 mmHG
[6]; Monocrotaline + 2.5 mg/kg bid, systemic arterial pressure
  SAP: 111 ± 7 mmHG
[6]; lung, Monocrotaline + 2.5 mg/kg bid
  Hydroxyproline: 2.7 ± 1.2 ug/g protein
[7]
  Zellproliferation (3H -Thymidin-Aufnahme): Reduktion der Zellproliferation
[3]
  freie Sauerstoffradikale, die ein Molekül aufnehmen kann: ≤ 4
[8]; rat [Hauso O et al.
  5-HT-induzierter Gewichtsanstieg von Herz und Leber: verhinderte
  Verhaltensabnormalitäten und fibrotische Hautveränderungen an den Injektionsorten von 5-HT: unterdrückte
[8]; rat, daily 5-HT over 4 months [Hauso O et al.
  pulmonale Klappeninsuffizienz: nicht nachweisbar

## Oxtergurid
[1]
  5-HT2B pA2: 6.42 ± 0.20
[2]; pig coronary arteries, conditions as in Beispiel 1
  5-HT2A pA2: 6.99 ± 0.04
